The values below come from patent US12220418B2 (MEDINCELL S.A., priority 2023, dated 2025).

Each structure is given as a SMILES string.

A short description of the data set: Open-label SAD and MAD study, pharmacokinetics in healthy subjects and patients. It is filed as in vivo, human. The note with it: oral, 2.5 to 20 mg/day for 7 days. The method, then:
This study was an open-label, SAD, and MAD study to evaluate the safety, tolerability, and PK of Formulation 1 in healthy subjects and patients with a diagnosis of schizophrenia or schizoaffective disorder. Healthy subjects received subtherapeutic Formulation 1 doses of up to 105 mg and patients received therapeutic doses of up to 566 mg. […] Subjects and patients who met screening eligibility were assigned to 1 of 8 active cohorts, or the Vehicle Cohort, as detailed in Table 5.1 below.
All cohorts included assessments of safety, tolerability, and intensive PK sampling.
Except for the starting dose of 70 mg, the study followed an adaptive design in which the decision to dose-escalate with Formulation 1 was based on a review of the PK and safety data from the preceding lower dose of Formulation 1.
An extensive PK collection scheme was applied following the last oral dose to fully characterize the PK at steady-state.
In multiple-dose cohorts, the 3 doses of Formulation 1 were administered on day 1, day 29 (week 4) and day 57 (week 8), respectively.

Turning to `Cc1cc2c(s1)Nc1ccccc1N=C2N1CCN(C)CC1` [olanzapine, 2-methyl-4-(4-methyl-1-piperazinyl)-10H-thieno[2,3-b] [1,5]benzodiazepine], the “increase of systemic exposure (Cmax, AUCτ,ss) with dose” value is “dose-proportional”.
